Test results as given in patent publication US7186738B2, “Antibacterial oxalidinones” (AstraZeneca AB, priority 2003, dated 2007).
In brackets after ≈: the same amount, converted by molar mass. Each block holds one compound with its values, some of them ahead of it.

Key:
[1] = target: T1, MAO-A (Homo sapiens, UniProt P21397); assay: MAO-A standard in-vitro assay, human liver enzyme expressed in yeast; format: biochemical; details: read-out: Ki value against MAO-A (converted)
T1 construct: made in house; host or cells: yeast
T1 sequence (P21397 1-527): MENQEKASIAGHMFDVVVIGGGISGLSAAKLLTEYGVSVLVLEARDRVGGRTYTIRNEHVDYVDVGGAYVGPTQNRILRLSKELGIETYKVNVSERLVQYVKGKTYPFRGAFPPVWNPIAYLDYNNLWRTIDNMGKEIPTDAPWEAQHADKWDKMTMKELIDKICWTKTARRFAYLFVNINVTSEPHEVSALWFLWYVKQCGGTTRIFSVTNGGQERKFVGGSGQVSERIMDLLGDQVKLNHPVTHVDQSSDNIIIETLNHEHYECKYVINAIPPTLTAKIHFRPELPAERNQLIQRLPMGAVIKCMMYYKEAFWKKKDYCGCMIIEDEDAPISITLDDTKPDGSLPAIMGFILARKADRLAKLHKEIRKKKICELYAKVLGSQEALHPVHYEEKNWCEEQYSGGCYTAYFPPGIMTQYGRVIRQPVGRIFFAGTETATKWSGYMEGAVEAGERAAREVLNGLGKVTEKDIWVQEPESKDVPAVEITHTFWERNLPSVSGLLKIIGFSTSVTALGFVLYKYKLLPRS
Procedure: The activity of the compounds of the invention against MAO-A was tested using a standard in-vitro assay based on human liver enzyme expressed in yeast as described in Biochem. Biophys. Res. Commun. 1991, 181, 1084–1088.

[2] = test system: Enterococcus faecium; assay: MIC by agar dilution, standard in-vitro test system; format: cell-based; details: agar with 5% defibrinated horse blood, 10^4 CFU/spot, 37° C., 5% carbon dioxide, 48 hours
Procedure: (§1) The following results were obtained on a standard in-vitro test system. The activity is described in terms of the minimum inhibitory concentration (MIC) determined by the agar-dilution technique with an inoculum size of 10^4 CFU/spot. Typically, compounds are active in the range 0.01 to 256 μg/ml. Streptococci and enterococci were tested on agar supplemented with 5% defibrinated horse blood, an inoculum of 10^4 CFU/spot and an incubation temperature of 37° C. in an atmosphere of 5% carbon dioxide for 48 hours—blood is required for the growth of some of the test organisms.

[3] = test system: Streptococcus pneumoniae; assay: as above; format: cell-based; details: agar with 5% defibrinated horse blood, 10^4 CFU/spot, 37° C., 5% carbon dioxide, 48 hours
Procedure: as §1

[4] = test system: Moraxella catarrhalis; assay: as above; format: cell-based; details: inoculum 10^4 CFU/spot
Procedure: (§2) The following results were obtained on a standard in-vitro test system. The activity is described in terms of the minimum inhibitory concentration (MIC) determined by the agar-dilution technique with an inoculum size of 10^4 CFU/spot. Typically, compounds are active in the range 0.01 to 256 μg/ml.

[5] = test system: Staphylococcus aureus MRQR (methicillin resistant and quinolone resistant); assay: as above; format: cell-based; details: inoculum 10^4 CFU/spot, 37° C., 24 hours
Procedure: as §2
(§3) Staphylococci were tested on agar, using an inoculum of 10^4 CFU/spot and an incubation temperature of 37° C. for 24 hours—standard test conditions for the expression of methicillin resistance.

[6] = test system: Staphylococcus aureus MSQS (methicillin sensitive and quinolone sensitive); assay: as above; format: cell-based; details: inoculum 10^4 CFU/spot, 37° C., 24 hours
Procedure: as §2, §3

MIC [2]: 0.5 µg/mL (≈ 1.46 µM)
MIC [3]: 0.25 µg/mL (≈ 0.728 µM)
MIC [4]: 1 µg/mL (≈ 2.91 µM)
MIC [5]: 1 µg/mL (≈ 2.91 µM)
MIC [6]: 0.5 µg/mL (≈ 1.46 µM)
SMILES: Cc1cc(-c2ccc(N3C[C@H](Cn4ccnn4)OC3=O)cc2F)on1 [Example 1, (5R)-3-[3-Fluoro-4-(3-methylisoxazol-5-yl)phenyl]-5-(1H-1,2,3-triazol-1-ylmethyl)-1,3-oxazolidin-2-one]

Ki [1]: 437 µM
SMILES: O=C1O[C@@H](Cn2ccnn2)CN1c1ccc(-c2c[nH]nn2)c(F)c1 [Example 7, (5R)-3-[3-Fluoro-4-(1H-1,2,3-triazol-4-yl)phenyl]-5-(1H-1,2,3-triazol-1-ylmethyl)-1,3-oxazolidin-2-one]

Second part, the compound before the results:

SMILES: CCOC(=O)c1cc(-c2ccc(N3C[C@H](Cn4ccnn4)OC3=O)cc2F)on1 [Example 2, Ethyl 5-{2-fluoro-4-[(5R)-2-oxo-5-(1H-1,2,3-triazol-1-ylmethyl)-1,3-oxazolidin-3-yl]phenyl}isoxazole-3-carboxylate]
Ki [1]: 47.3 µM

SMILES: CC(=O)NC[C@H]1CN(c2ccc(-c3c[nH]nn3)c(F)c2)C(=O)O1 [acetamide analogue of Example 7, reference compound]
Ki [1]: 106 µM

SMILES: CCOC(=O)c1cc(-c2ccc(N3C[C@H](CNC(C)=O)OC3=O)cc2F)on1 [acetamide analogue of Example 2, reference compound]
Ki [1]: 15.3 µM
